Values of other authors in patent US9339471B2, “Long acting dual release product containing carbinoxamine and pseudoephedrine” (E5 PHARMA, LLC, priority 2007, dated 2016).

Conditions: dependent on urine pH; cited from earlier work

SMILES: CN[C@@H](C)[C@@H](O)c1ccccc1.Cl (relative stereo) [Pseudoephedrine, [S—(R*,R*)]-α-[1-(methylamino)ethyl]-benzenemethanol hydrochloride]
- mean elimination half-life: 4 to 6 h
